Experimental data reported in patent US7632794B1, “Lens care solutions comprising alkyldimonium hydroxypropyl alkylglucosides” (Bausch & Lomb Incorporated, priority 2008, dated 2009).

Test system: five microorganisms tested (three bacterium and two fungal strains)
Experiment: Biocidal efficacy across the microorganisms tested
Format: cell-based
Conditions: aqueous buffered borate solution
Excerpt: Accordingly, a composition containing as little as 75 ppm of S-1218 and 50 ppm of L-1010P is shown to have very strong biocidal activity against all five microorganisms.

In the case of “stearyl dimoniumhydropropyl decylglucoside”, the “biocidal efficacy (in words)” value is reported as “relatively high increase in biocidal efficacy”.
For “stearyl dimoniumhydropropyl laurylglucoside”, the “biocidal efficacy (in words)” value was “relatively high increase in biocidal efficacy”.
